The values that follow are results of earlier work, collected in publication PMC2967214 (Journal of the American Chemical Society, 2010).

The conditions of data set [1]: cited from earlier work.
For data set [2] the following is noted: 25°C, 20 MHz; cited from earlier work.

Take `O=C(O)CN1CCN(CC(=O)O)CCN(CC(=O)O)CCN(CC(=O)O)CC1` [DOTA]: the “thermodynamic and kinetic stability of Gd3+ complex” value in data set [1] is “high thermodynamic and kinetic stability”. Turning to Gadomer 17, the r1 relaxivity in data set [2] is 16.5 mM⁻¹ s⁻¹.
